In patent publication US20090010880A1 (priority 2007, published 2009):
≈ marks a conversion by molar mass, not a printed value. Where two headings read alike, the source gives them in different places.

How the values were obtained:
[1] = Cytotoxicity (CC50) in BHK cells; type: cell-based; settings: hamster
[2] = tested on: DV (Dengue Virus); assay: Cytopathic Effect Assay (CPEA), Dengue virus in BHK cells; type: cell-based
[3] = Cytotoxicity (CC50) in BND cells; type: cell-based, Bottle Nose Dolphin; settings: bottlenose dolphin, BND skin cells
[4] = tested on: BVDV (Bovine Viral Diarrhea Virus); assay: microbe, parasite or virus in culture; type: cell-based; settings: for inhibition of virus yield: 6-25 μg/ml, 24 and 48 hours post infection
[5] = tested on: BVDV (Bovine Viral Diarrhea Virus); assay: Cytopathic Effect Assay (CPEA), BVDV in BND cells; type: cell-based; settings: Bovine viral diarrhea virus isolates and strains
[6] = tested on: DV (Dengue Virus); assay: Yield Reduction Assay (YRA), Dengue virus in BHK cells; type: cell-based
[7] = tested on: MDBK (Madin-Darby Bovine Kidney) cells; assay: Cytotoxicity / cell viability in MDBK cells; type: cell-based
[8] = Cytotoxicity / cell viability in MDBK cells; type: cell-based, Bovine; settings: bovine, MDBK cells
[9] = tested on: YFV (Yellow Fever Virus); assay: microbe, parasite or virus in culture; type: cell-based; settings: read-out: CPEA EC50
[10] = tested on: viral protein NS3; assay: Western blot analysis of viral NS3 protein; type: cell-based, Bovine Viral Diarrhea Virus; settings: 25 μg/ml, 24 hours post infection, MOI of 10
Experimental: MDBK cells were infected with NADL strain of BVDV (MOI 10) in the presence or absence of 25 μg/ml of geneticin. Based on previous publications, the 18-24 h post-infection time point was chosen to determine viral proteins in infected cells. […] Thus, at 24 h post-infection, cell media was removed and cells were washed several times with PBS. Then, 2× concentrated electrophoresis sample buffer was added, cells were scraped from the dish and transferred to a microcentrifuge tube. To reduce viscosity, the samples were sonicated briefly or passed several times through a 26-gauge needle and boiled for 5 min. Fifteen micrograms of lysate sample were run on 10% SDS-PAGE and then transblotted. After blocking for 1 h in blocking buffer (5% dry milk in 0.05% Tween 20 in PBS), membranes were incubated with primary antibody (MAb 20.10.6) diluted 1:1,000 in blocking buffer for 60 min at room temperature and washed with 0.05% Tween 20 in PBS. After incubation with secondary antibody (anti-mouse IgG-HRP; Sigma) diluted 1:200 in blocking buffer for 60 min at room temperature, NS3 was detected with the Amersham ECL kit according to the manufacturer's instructions (Amersham Biosciences, Piscataway, N.J., USA).

[11] = tested on: BVDV (Bovine Viral Diarrhea Virus); assay: Cytopathic Effect Assay (CPEA) / cell viability, BVDV in MDBK cells; settings: for EC50: Bovine viral diarrhea virus isolates and strains, MDBK
[12] = tested on: YFV (Yellow Fever Virus); assay: microbe, parasite or virus in culture; type: cell-based; settings: read-out: YRA EC50
[13] = tested on: BVDV; assay: Antiviral activity against BVDV (structure-function analysis); type: cell-based, Bovine Viral Diarrhea Virus

Compound: CN[C@@H]1[C@@H](O)[C@@H](O[C@@H]2[C@@H](O)[C@H](O[C@H]3O[C@H]([C@@H](C)O)[C@@H](O)[C@H](O)[C@H]3N)[C@@H](N)C[C@H]2N)OC[C@]1(C)O [Geneticin]
- CC50 [1]: 160 µg/mL (≈ 322 µM)
- EC50 [2]: 4 µg/mL (≈ 8.06 µM)
- CC50 [3]: > 2000 µg/mL
- viral production [4]: below 10 % of control
- EC50 ([4]; Bovine viral diarrhea virus isolates and strains, MDBK, BVDV, MDBK cells, read-out: YRA EC50): ~4 µg/mL (≈ 8.06 µM)
- inhibition of virus yield ([4]; NADL strain): 10-100 fold
- inhibition of virus yield ([4]; NY-1 strain): 10-100 fold
- EC50 [5]: 50 µg/mL (≈ 101 µM)
- EC50 [6]: 5 µg/mL (≈ 10.1 µM)
- MDBK cell viability (uninfected) ([7]; 31-250 μg/ml, 72 hours): no effect
- concentration with cell toxicity (downward curve of cell viability) ([7]; high doses): above 400 μg/ml
- CC50 [8]: 400 µg/mL (≈ 806 µM)
- EC50 [9]: 20 µg/mL (≈ 40.3 µM)
- synthesis of the viral protein NS3 [10]: no effect
- EC50 ([11]; read-out: CPEA EC50, BVDV, MDBK cells): ~4 µg/mL (≈ 8.06 µM)
- EC50 ([11]; read-out: EC50 concentration for antiBVDV activity, BVDV): 4 µg/mL (≈ 8.06 µM)
- EC50 [12]: 10 µg/mL (≈ 20.1 µM)

Compound: CC(=O)O[C@H]1C[C@@]2(C)[C@@H](C[C@@H](O)[C@H]3[C@@]4(C)CC[C@@H](O)[C@@H](C)[C@@H]4CC[C@@]32C)/C1=C(\CCC=C(C)C)C(=O)O [fusidic acid]
- antiviral activity against BVDV [13]: inactive

Compound: NC[C@@H]1O[C@H](O[C@H]2[C@@H](O)[C@H](O[C@@H]3[C@@H](O)[C@H](N)C[C@H](N)[C@H]3O[C@H]3O[C@H](CO)[C@@H](O)[C@H](O)[C@H]3N)O[C@@H]2CO)[C@H](N)[C@@H](O)[C@@H]1O [paromomycin]
- antiviral activity against BVDV [13]: no antiviral activity

Compound: gentamicin
- cell viability of cpBVDV-infected cells (cytoprotection against NADL) ([11]; NADL, MDBK cells, 12 μg/ml per drug): decreased the cell viability
